Results reported in patent US8747873B2, “Compositions of dibromomalonamide and their use as biocides” (Dow Global Technologies LLC, priority 2012, dated 2014).
Read-outs that look alike come from different tables or passages of the source.

Columns and labels:
[1] = system: mixture of Pseudomonas aeruginosa, Klebsiella pneumoniae, Staphylococcus aureus, and Bacillus subtilis; assay: Growth inhibition assay; type: cell-based; conditions: 24 h; for inhibition at 0.19 µg/mL / inhibition at 0.39 µg/mL / inhibition at 0.78 µg/mL / inhibition at 1.56 µg/mL / inhibition at 3.13 µg/mL / inhibition at 6.25 µg/mL / inhibition at 12.5 µg/mL / inhibition at 25 µg/mL: read-out: % Inhibition of growth by DBMAL
From the text: The growth inhibition assay used in the Examples measures inhibition of growth (or lack thereof) of a microbial consortium. Inhibition of growth can be the result of killing of the cells (so no growth occurs), killing of a significant portion of the populations of cells so that regrowth requires a prolonged time, or inhibition of growth without killing (stasis). Regardless of the mechanism of action, the impact of a biocide (or combination of biocides) can be measured over time on the basis of an increase in the size of the community.
The assay measures the efficacy of one or more biocides at preventing growth of a consortium of bacteria in a dilute mineral salts medium. The medium contains (in mg/l) the following components: FeCl3.6H2O (1); CaCl2.2H2O (10); MgSO4.7H2O (22.5); (NH4)2SO4 (40); KH2PO4 (10); K2HPO4 (25.5); Yeast Extract (10); and glucose (100). After all components are added to deionized water, the pH of the medium is adjusted to 7.5. Following filter sterilization, aliquots are dispensed in 100 ul quantities to sterile microtiter plate wells. Dilutions of DBMAL and/or “Biocide B” are then added to the microtiter plate. After preparing the combinations of actives as illustrated below, each well is inoculated with 100 μl of a cell suspension containing ca. 1×10^6 cells per milliliter of a mixture of Pseudomonas aeruginosa, Klebsiella pneumoniae, Staphylococcus aureus, and Bacillus subtilis. The final total volume of medium in each well is 300 μl. […] The resulting matrix allows testing of eight concentrations of each active and 64 combinations of actives in the ratios (of actives).
Controls (not shown) contain the medium with no biocide added. After preparing the combinations of actives as illustrated above, each well is inoculated with 100 μl of a cell suspension containing ca. 1×10^6 cells per milliliter of a mixture of Pseudomonas aeruginosa, Klebsiella pneumoniae, Staphylococcus aureus, and Bacillus subtilis. The final total volume of medium in each well is 300 μl.
Immediately after the microtiter plates are prepared, the optical density (OD) readings for each well is measured at 580 nm and the plates are then incubated at 37° C. for 24 hr. After the incubation period, the plates are gently agitated before OD580 values are collected. The OD580 values at T0 are subtracted from T24 values to determine the total amount of growth (or lack thereof) that occurs. These values are used to calculate the percent inhibition of growth caused by the presence of each biocide and each of the 64 combinations. A 90% inhibition of growth is used as a threshold for calculating synergy index (SI) values with the following equation: Synergy Index=MDBMAL/CDBMAL+MB/CB
where • CDBMAL: Concentration of DBMAL required to inhibit ˜90% of bacterial growth when used alone • CB: Concentration of biocide (B) required to inhibit ˜90% of bacterial growth when used alone. • MDBMAL: Concentration of DBMAL required to inhibit ˜90% of bacterial growth when used in combination with biocide (B). • MB: Concentration of biocide (B) required to inhibit ˜90% of bacterial growth when used in combination with DBMAL The SI values are interpreted as follows: • SI<1: Synergistic combination • SI=1: Additive combination • SI>1: Antagonistic combination

[2] = system: mixture of Pseudomonas aeruginosa ATCC 10145 and Staphylococcus aureus ATCC 6538; assay: Kill assay (MBC, synergy index); type: cell-based; conditions: 37° C., 2 hours
Description: This assay is used as a preliminary evaluation of synergy between the actives. The procedure is as follows. A mineral salts solution (0.2203 g of CaCl2, 0.1847 g of MgSO4, and 0.2033 g of NaHCO3 in 1 L water, approximately pH 8) is inoculated with equal amounts (about 10^7 CFU/ml) of a mixture of Pseudomonas aeruginosa ATCC 10145 and Staphylococcus aureus ATCC 6538. Aliquots of the cell suspension are then treated with 2,2-dibromomalonamide (“DBMAL”), […], and their combinations at various concentration levels. […] The MBC values are then used to calculate a synergy index (SI) values.
Summaries of the kill assay results are presented in the individual Examples. In each table, MBC values for each biocide and the blends tested are presented Likewise, the Synergy Index (“SI”) values for the combinations are listed. SI is calculated with the following equation: Synergy Index=Ca/CA+Mb/CB […]

NC(=O)C(Br)(Br)C(N)=O [DBMAL, 2,2-dibromomalonamide]
inhibition at 0.19 µg/mL ([1]; Table 3, DBMAL alone 0.19 mg/l): 0% | inhibition at 0.39 µg/mL ([1]; Table 3, DBMAL alone 0.39 mg/l): 0% | inhibition at 0.78 µg/mL ([1]; Table 3, DBMAL alone 0.78 mg/l): 34% | inhibition at 1.56 µg/mL ([1]; Table 3, DBMAL alone 1.56 mg/l): 11% | inhibition at 3.13 µg/mL ([1]; Table 3, DBMAL alone 3.13 mg/l): 38% | inhibition at 6.25 µg/mL ([1]; Table 3, DBMAL alone 6.25 mg/l): 50% | inhibition at 12.5 µg/mL ([1]; Table 3, DBMAL alone 12.5 mg/l): 107% | inhibition at 25 µg/mL ([1]; Table 3, DBMAL alone 25.0 mg/l): 105% | inhibition at 0.19 µg/mL ([1]; Table 6, DBMAL alone 0.19 mg/l): 0% | inhibition at 0.39 µg/mL ([1]; Table 6, DBMAL alone 0.39 mg/l): 0% | inhibition at 0.78 µg/mL ([1]; Table 6, DBMAL alone 0.78 mg/l): 18% | inhibition at 1.56 µg/mL ([1]; Table 6, DBMAL alone 1.56 mg/l): 34% | inhibition at 3.13 µg/mL ([1]; Table 6, DBMAL alone 3.13 mg/l): 50% | inhibition at 6.25 µg/mL ([1]; Table 6, DBMAL alone 6.25 mg/l): 44% | inhibition at 12.5 µg/mL ([1]; Table 6, DBMAL alone 12.5 mg/l): 97% | inhibition at 25 µg/mL ([1]; Table 6, DBMAL alone 25 mg/l): 100% | inhibition at 0.19 µg/mL ([1]; Table 8, DBMAL alone 0.19 mg/l): 0% | inhibition at 0.39 µg/mL ([1]; Table 8, DBMAL alone 0.39 mg/l): 2% | inhibition at 0.78 µg/mL ([1]; Table 8, DBMAL alone 0.78 mg/l): 0% | inhibition at 1.56 µg/mL ([1]; Table 8, DBMAL alone 1.56 mg/l): 0% | inhibition at 3.13 µg/mL ([1]; Table 8, DBMAL alone 3.13 mg/l): 0% | inhibition at 6.25 µg/mL ([1]; Table 8, DBMAL alone 6.25 mg/l): 0% | inhibition at 12.5 µg/mL ([1]; Table 8, DBMAL alone 12.5 mg/l): 100% | inhibition at 25 µg/mL ([1]; Table 8, DBMAL alone 25.0 mg/l): 100% | inhibition at 0.19 µg/mL ([1]; Table 10, DBMAL alone 0.19 mg/l): 7% | inhibition at 0.39 µg/mL ([1]; Table 10, DBMAL alone 0.39 mg/l): 0% | inhibition at 0.78 µg/mL ([1]; Table 10, DBMAL alone 0.78 mg/l): 0% | inhibition at 1.56 µg/mL ([1]; Table 10, DBMAL alone 1.56 mg/l): 0% | inhibition at 3.13 µg/mL ([1]; Table 10, DBMAL alone 3.13 mg/l): 0% | inhibition at 6.25 µg/mL ([1]; Table 10, DBMAL alone 6.25 mg/l): 52% | inhibition at 12.5 µg/mL ([1]; Table 10, DBMAL alone 12.5 mg/l): 99% | inhibition at 25 µg/mL ([1]; Table 10, DBMAL alone 25.0 mg/l): 100% | inhibition at 0.19 µg/mL ([1]; Table 12 (4,4-D), DBMAL alone 0.19 mg/l): 0% | inhibition at 0.39 µg/mL ([1]; Table 12 (4,4-D), DBMAL alone 0.39 mg/l): 6% | inhibition at 0.78 µg/mL ([1]; Table 12 (4,4-D), DBMAL alone 0.78 mg/l): 0% | inhibition at 1.56 µg/mL ([1]; Table 12 (4,4-D), DBMAL alone 1.56 mg/l): 2% | inhibition at 3.13 µg/mL ([1]; Table 12 (4,4-D), DBMAL alone 3.13 mg/l): 0% | inhibition at 6.25 µg/mL ([1]; Table 12 (4,4-D), DBMAL alone 6.25 mg/l): 0% | inhibition at 12.5 µg/mL ([1]; Table 12 (4,4-D), DBMAL alone 12.5 mg/l): 100% | inhibition at 25 µg/mL ([1]; Table 12 (4,4-D), DBMAL alone 25.0 mg/l): 100% | inhibition at 0.19 µg/mL ([1]; Table 12 (TEHT), DBMAL alone 0.19 mg/l): 13% | inhibition at 0.39 µg/mL ([1]; Table 12 (TEHT), DBMAL alone 0.39 mg/l): 8% | inhibition at 0.78 µg/mL ([1]; Table 12 (TEHT), DBMAL alone 0.78 mg/l): 30% | inhibition at 1.56 µg/mL ([1]; Table 12 (TEHT), DBMAL alone 1.56 mg/l): 32% | inhibition at 3.13 µg/mL ([1]; Table 12 (TEHT), DBMAL alone 3.13 mg/l): 45% | inhibition at 6.25 µg/mL ([1]; Table 12 (TEHT), DBMAL alone 6.25 mg/l): 32% | inhibition at 12.5 µg/mL ([1]; Table 12 (TEHT), DBMAL alone 12.5 mg/l): 97% | inhibition at 25 µg/mL ([1]; Table 12 (TEHT), DBMAL alone 25.0 mg/l): 96% | concentration needed to provide at least 90% inhibition of growth ([1]; biocide alone): 12.5 mg/L | MBC (minimum biocide concentration needed to completely kill), biocide alone [2]: 66.7 µg/mL
